Like-named read-outs stand apart in the source and are kept apart here.
Columns and labels:
[1] = test system: PAF Induced Bronchoconstriction; test: PAF induced bronchoconstriction assay, oral testing; assay type: in vivo, guinea pig; conditions: Cavia porcellus, po, 2 hr; for ED50: p.o., read-out: Bronchoconstriction ID-50 p.o. 2 hr; for inhibition in vivo at 0.3 mg/kg: at a dose of 0.3 mg/kg p.o.; for inhibition in vivo at 3 mg/kg: Table II (*), 3 mg/kg p.o.
[2] = test system: PAF Induced Bronchoconstriction; test: PAF induced bronchoconstriction assay, intravenous testing; assay type: in vivo, guinea pig; conditions: for ED50: Cavia porcellus, iv, 1 min, i.v., 1 minute pretreatment, PAF 1 μg/kg i.v., read-out: Bronchoconstriction ID-50 i.v.; for % inhibition of bronchoconstriction: Table II (*), at 0. mg/kg i.v. (dose digit cut off)
Description: Male animals (Hartlet Strain, 400-500 g were anesthetized with urethane (2 g/kg, i.p.). Each animals' trachea was cannulated and the guinea pigs were respirated using a Harvard small animal rodent respirator (3.0 cc stroke volume, 40 breaths per min.). Tracheal pressure was recorded from a cannula inserted in the trachea and connected to a Statham pressure transducer.
The jugular vein was cannulated for administering compounds. Spontaneous breathing was arrested with succinylcholine (1.2 mg/kg, i.v.) administered 2 minutes prior to intravenous injection of platelet activating factor PAF).
For the intravenous testing, the guinea pig is given a 1-minute pretreatment with propranolol at a dose of 0.1 mg/kg intravenously. The test compound is administered with a 1 minute pretreatment prior to intravenous challenge with PAF. The animal is then challenged with a 1 μg/kg intravenous dose of PAF and the change in tracheal pressure is measured.
The change in tracheal pressure is determined by subtracting the steady state baseline achieved after administration of succinylcholine from the peak broncho. constriction seen after challenge with PAF. The mean is calculated for each test compound and compared to the mean of the control animals to give the percent inhibition of bronchoconstriction. The standard error is calculated as the standard error of the mean.

[3] = target: T1, PAF-binding, dog platelets (Canis lupus familiaris, UniProt A0A8I3NSH0); test: PAF binding assay (radiolabelled H-PAF, washed dog platelets); conditions: 10 minutes at room temperature, read-out: PAF-binding IC-50
T1 construct: dog platelets; from tissue; host or cells: washed platelets from citrated dog blood
T1 sequence (A0A8I3NSH0 1-343): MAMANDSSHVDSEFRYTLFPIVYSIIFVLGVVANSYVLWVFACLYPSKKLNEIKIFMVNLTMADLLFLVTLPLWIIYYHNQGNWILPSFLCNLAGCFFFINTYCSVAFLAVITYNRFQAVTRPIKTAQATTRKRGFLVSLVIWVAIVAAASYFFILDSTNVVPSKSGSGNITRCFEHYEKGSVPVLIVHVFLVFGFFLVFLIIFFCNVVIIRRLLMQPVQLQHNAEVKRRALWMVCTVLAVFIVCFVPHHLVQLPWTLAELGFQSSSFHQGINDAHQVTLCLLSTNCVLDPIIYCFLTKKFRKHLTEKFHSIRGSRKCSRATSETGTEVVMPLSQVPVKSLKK
Description: The binding assay was done in […] polyethylene microcentrifuge tubes (Beckman) containing 50 μl of an oil mixture of 2 parts Siliconol AR200 (Serva): 1 part Silicone Fluid (Arthur H. Thoma). Buffer, standards, or analogs (150 μl total volume) were added to the tubes. Radiolabelled H-PAF (50 μl) was then added to the tubes. The reaction was started by the addition of 50 μl of dog platelets (2×10^7 platelets). The tubes were capped, inverted several times to mix, and incubated for 10 minutes at room temperature. The platelets were separated from the incubation mixture by centrifuging 1 minute in a Beckman Microfuge B centrifuge. The tip of the microfuge tube was cut off, and the platelets were washed out of the tip with 200 μl of 50% methanol (Burdick and Jackson). Aquasol (NEN, 10 ml) was added and the radioactivity in the samples was determined using an LS 8100 Beckman liquid scintillation counter linked to a Techtran tape recorder Data was processed through an in-house computer system. Alternatively, radioactivity was determined using a Searle Mark III liquid scintillation counter linked to a Iso-Data microprocessor.
(b) preparation of platelets
Blood was collected from anesthesized or unanesthesized dogs into 50 ml plastic centrifuge tubes containing 3.8% sodium citrate as the anticoagulant (1 volume of citrate/9 volumes of blood). The red cells were removed by centrifugation for 15 minutes at 600 rpm (100-125 g) at room temperature. An aliquot of the supernatant platelet rich plasma (PRP) was saved for cell counting and the remainder was acidified to pH 6.5 with 0.15M citric acid. The platelet pellet was obtained after a 10 minute centrifugation at 2000 rpm (1000 g) at room temperature. Washed platelets were prepared by resuspending the platelet pellet once with pBS containing 1 mM EDTA, centrifuging as noted, and then resuspending the platelets in 0.1% BSA pBS. An aliquot of the washed platelets was counted. Platelets used for binding assays were diluted to 2×10^7 platelets/assay tube (4×10^8 platelets/ml). platelet countinq was done using a Royco Cell-Crit 921.

[4] = Table II, triazolobenzodiazepines
[5] = Table I, triazolothienodiazepines

Structure (SMILES) | ED50 ([1]; Table I) [mg/kg] | ED50 ([2]; Table I) [mg/kg] | IC50 [3, 5] [nM] | further results
CCc1nnc2n1-c1ccc(C#CCN3C(=O)c4ccccc4C3=O)cc1C(c1ccccc1F)=NC2 [2-[3-[1-Ethyl-6-(2-fluorophenyl)-4H-[1,2,4]triazolo[4,3-a][1, 4]benzodiazepin-8-yl]-2-propynyl]-1H-isoindole-1,3(2H)dione semihydrate] | – | – | – | ED50 ([1]; Table II): 1.5 mg/kg; ED50 ([2]; Table II): 0.054 mg/kg; IC50 [3, 4]: 100 nM
Cc1nnc2n1-c1sc(C#CCn3c4ccccc4c4ccccc43)cc1C(c1ccccc1Cl)=NC2 | 0.016 | 0.016 | 120 | –
Cc1nnc2n1-c1sc(C#CCN3C(=O)c4cccc5cccc(c45)C3=O)cc1C(c1ccccc1Cl)=NC2 | 0.025 | < 0.1 | 12 | –
Cc1nnc2n1-c1sc(C#CCn3ccc4ccccc4c3=O)cc1C(c1ccccc1Cl)=NC2 | 0.029 | 0.007 | 1 | –
Cc1nnc2n1-c1ccc(C#CCN3C(=O)CCc4ccccc43)cc1C(c1ccccc1F)=NC2 | – | – | – | ED50 ([1]; Table II): 0.44 mg/kg; ED50 ([2]; Table II): 0.015 mg/kg; IC50 [3, 4]: 20 nM
Cc1nnc2n1-c1sc(C#CCn3c(=O)n(C)c4ccccc43)cc1C(c1ccccc1Cl)=NC2 | 0.043 | 0.004 | 0.3 | –
Cc1nnc2n1-c1sc(C#CCn3cnc4c3c(=O)n(C)c(=O)n4C)cc1C(c1ccccc1Cl)=NC2 | – | 0.043 | 20 | inhibition in vivo at 0.3 mg/kg ([1]; Table I): 27%
Cc1nnc2n1-c1sc(C#CCN3C(=O)CCc4cc(Cl)cc(Cl)c43)cc1C(c1ccccc1Cl)=NC2 | 0.021 | 0.006 | < 1 | –
COC1c2ccccc2C(=O)N1CC#Cc1ccc2c(c1)C(c1ccccc1F)=NCc1nnc(C)n1-2 (stereo not drawn) | – | – | – | inhibition in vivo at 3 mg/kg [1]: 100%; % inhibition of bronchoconstriction [2]: 99%; IC50 [3, 4]: 100 nM
Cc1nnc2n1-c1sc(C#CCN3C(=O)COc4ccc(Cl)cc43)cc1C(c1ccccc1Cl)=NC2 | 0.049 | 0.004 | < 1 | –
Cc1nnc2n1-c1sc(C#CCN3C(=O)c4cccc5cccc3c45)cc1C(c1ccccc1Cl)=NC2 | 0.042 | < 0.1 | 5 | –
C#Cc1cc2c(s1)-n1c(C)nnc1CN=C2c1ccccc1Cl | – | 0.02 | 10 | inhibition in vivo at 0.3 mg/kg ([1]; Table I): 17%
Cc1nnc2n1-c1sc(C#CCn3c(=O)c4ccccc4c4ccccc4c3=O)cc1C(c1ccccc1Cl)=NC2 | 0.015 | 0.01 | 51 | –
Cc1nnc2n1-c1sc(C#CCn3c(=O)c4c(ncn4C)n(C)c3=O)cc1C(c1ccccc1Cl)=NC2 | – | 0.018 | 7 | inhibition in vivo at 0.3 mg/kg ([1]; Table I): 38%
Cc1nnc2n1-c1ccc(C#CCCc3ccccc3)cc1C(c1ccccc1F)=NC2 | – | – | – | ED50 ([1]; Table II): > 0.3 mg/kg; ED50 ([2]; Table II): 0.006 mg/kg; IC50 [3, 4]: < 1 nM
Cc1nnc2n1-c1sc(C#CCn3c(=O)n(C)c(=O)c4ccccc43)cc1C(c1ccccc1Cl)=NC2 | 0.017 | 0.007 | 0.6 | –
Cc1nnc2n1-c1ccc(C#CCN3C(=O)c4cccc5cccc3c45)cc1C(c1ccccc1F)=NC2 | – | – | – | inhibition in vivo at 3 mg/kg [1]: 57%; % inhibition of bronchoconstriction [2]: 99%; IC50 [3, 4]: 20 nM
Cc1nnc2n1-c1sc(C#CCN3C(=O)C4(C)CCCc5cccc3c54)cc1C(c1ccccc1Cl)=NC2 (stereo not drawn) | 0.03 | 0.013 | 12 | –
Cc1nnc2n1-c1sc(C#CCn3c(=O)c4ccccc4c4ccccc43)cc1C(c1ccccc1Cl)=NC2 | 0.012 | 0.016 | 13 | –
Cc1nnc2n1-c1sc(C#CCN3C(=O)C(=O)c4ccccc43)cc1C(c1ccccc1Cl)=NC2 | 0.06 | < 0.1 | 7 | –
Cc1nnc2n1-c1sc(C#CCN3C(=O)CCc4ccccc43)cc1C(c1ccccc1Cl)=NC2 | 0.015 | 0.004 | 0.2 | –
Cc1nnc2n1-c1ccc(C#CCN3C(=O)c4ccccc4C3=O)cc1C(c1ccccc1F)=NC2 | – | – | – | ED50 ([1]; Table II): 0.52 mg/kg; ED50 ([2]; Table II): 0.013 mg/kg; IC50 [3, 4]: 10 nM
Cc1nnc2n1-c1sc(C#CCN3C(=O)COc4ccccc43)cc1C(c1ccccc1Cl)=NC2 | 0.019 | 0.007 | 0.7 | –
Cc1nnc2n1-c1sc(C#CCn3c(=O)ccc4ccccc43)cc1C(c1ccccc1Cl)=NC2 | 0.016 | 0.006 | 2 | –
